Measured values as given in patent publication US11780845B2 (Relay Therapeutics, Inc., priority 2019, dated 2023).

What was measured:
FGFR2 = FGFR2 (Homo sapiens (Human), UniProt P21802); experiment: Biochemical FGFR2 Caliper assay
SNU-16 = experiment: Cell SNU-16 assay; type: cell-based
[1] = Homo sapiens, SNU-16, SNU-16 cells

Sequence of FGFR2 (P21802 22-821): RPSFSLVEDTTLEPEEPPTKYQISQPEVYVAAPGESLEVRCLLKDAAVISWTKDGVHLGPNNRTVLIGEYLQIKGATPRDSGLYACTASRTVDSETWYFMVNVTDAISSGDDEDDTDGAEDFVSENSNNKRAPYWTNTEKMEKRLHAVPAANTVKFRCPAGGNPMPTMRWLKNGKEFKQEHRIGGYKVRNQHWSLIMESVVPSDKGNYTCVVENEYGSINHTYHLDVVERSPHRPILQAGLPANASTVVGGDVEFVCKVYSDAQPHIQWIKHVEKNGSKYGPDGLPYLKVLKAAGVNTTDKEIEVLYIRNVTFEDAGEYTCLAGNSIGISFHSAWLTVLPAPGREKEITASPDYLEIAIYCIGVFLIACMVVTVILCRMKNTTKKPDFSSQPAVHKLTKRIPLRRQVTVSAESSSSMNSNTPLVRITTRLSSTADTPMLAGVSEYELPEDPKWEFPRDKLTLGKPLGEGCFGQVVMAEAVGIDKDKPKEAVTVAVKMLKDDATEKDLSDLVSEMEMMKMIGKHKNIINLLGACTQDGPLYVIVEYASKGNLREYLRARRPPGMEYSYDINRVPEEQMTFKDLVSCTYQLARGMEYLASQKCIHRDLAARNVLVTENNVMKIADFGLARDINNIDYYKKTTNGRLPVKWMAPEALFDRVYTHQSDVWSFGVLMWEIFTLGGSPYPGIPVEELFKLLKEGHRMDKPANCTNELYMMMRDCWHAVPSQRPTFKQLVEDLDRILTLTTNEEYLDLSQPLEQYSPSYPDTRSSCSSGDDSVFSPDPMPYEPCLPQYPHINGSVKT

C#Cc1ncc(-c2c(-c3ccc(Oc4nccc(C)n4)c(F)c3)c3c(N)ncnc3n2C)c(C)c1C [Example 1365]
IC50 (FGFR2): < 0.1 µM
IC50 (SNU-16; [1]): ≤ 0.1 µM

C=C(C)C(=O)Nc1ccc(-c2c(-c3ccc(C(=O)NC4(COC)CCC4)c(OC)c3)c3c(N)ncnc3n2C)cc1 [Example 956]
IC50 (FGFR2): < 0.1 µM
IC50 (SNU-16; [1]): ≤ 0.1 µM

C=C(C)C(=O)Nc1ccc(-c2c(-c3ccc(Oc4nccc(C)n4)c(F)c3)c3c(C)ncnc3n2C)c(C)c1 [Example 1126]
IC50 (FGFR2): < 0.1 µM
IC50 (SNU-16; [1]): ≤ 0.1 µM

C=CC(=O)Nc1ccc(-c2c(-c3ccc(Oc4cccc(C)n4)cc3)c3c(N)ncnc3n2C)cc1 [Example 1050]
IC50 (FGFR2): 0.25 to 1 µM
IC50 (SNU-16; [1]): 0.25 to 1 µM

C=C(C)c1nc(-c2ccc(-c3c(-c4ccccc4)c4c(N)ncnc4n3C)cc2)no1 [Example 1172]
IC50 (FGFR2): < 0.1 µM
IC50 (SNU-16; [1]): ≤ 0.1 µM

CC1=CCN(c2ccc(-c3c(-c4ccc(Oc5nccc(C)n5)cc4)c4c(N)ncnc4n3C)cc2)C1=O [Example 924]
IC50 (FGFR2): 1 to 100 µM
IC50 (SNU-16; SNU-16 cells): 1 to 100 µM

C=C(C)C(=O)Nc1ccc(-c2c(C3=CC[C@]4(CC3)CCN(C)C4=O)c3c(N)ncnc3n2C)cc1 (single isomer, unassigned) [Example 934]
IC50 (FGFR2): < 0.1 µM
IC50 (SNU-16; [1]): ≤ 0.1 µM

C#Cc1cc(C)c(-c2c(C3=CC[C@@H](C(=O)N4CCCC45CC5)CC3)c3c(N)ncnc3n2C)cn1 [Example 1341]
IC50 (FGFR2): < 0.1 µM
IC50 (SNU-16; [1]): 0.25 to 1 µM

C=C1CCN(c2ccc(-c3c(C4=CC[C@@H](C(=O)N5CCCC5)CC4)c4c(N)ncnc4n3C)cc2)C1=O (single isomer, unassigned) [Example 1134]
IC50 (FGFR2): 0.25 to 1 µM
IC50 (SNU-16; [1]): 0.1 to 0.25 µM

C#C[C@@H]1CCCN1C(=O)[C@H]1CC=C(c2c(-c3ccc(NC(=O)C(=C)C)cc3)n(C)c3ncnc(N)c23)CC1 (single isomer, unassigned) [Example 949]
IC50 (FGFR2): 0.1 to 0.25 µM
IC50 (SNU-16; [1]): 1 to 100 µM

C=CC(=O)Nc1ccc(-c2c(-c3ccc(-n4cc(C)cn4)nc3)c3c(C)ncnc3n2C)cc1 [Example 1315]
IC50 (FGFR2): 0.1 to 0.25 µM
IC50 (SNU-16; [1]): 0.25 to 1 µM

CC#Cc1cnc(-c2c(-c3ccc(Oc4nccc(C)n4)c(F)c3)c3c(N)ncnc3n2C)c(C)n1 [Example 1312]
IC50 (FGFR2): 0.25 to 1 µM
IC50 (SNU-16; [1]): 0.1 to 0.25 µM

C#Cc1cc(C)c(-c2c(-c3ccc(Oc4nccc(C)n4)cn3)c3c(N)ncnc3n2C)cn1 [Example 1327]
IC50 (FGFR2): < 0.1 µM
IC50 (SNU-16; [1]): ≤ 0.1 µM

C=C(C)C(=O)Nc1ccc(-c2c(-c3ccc(C(=O)N4CCCC4)cc3)c3c(N)n[nH]c(=O)c3n2C)cc1 [Example 870]
IC50 (FGFR2): 1 to 100 µM
IC50 (SNU-16; SNU-16 cells): 0.1 to 0.25 µM

C=C(C)C(=O)Nc1ccc(-c2c(C3=CC[C@@](C)(C(=O)N4CCCC4)CC3)c3c(N)ncnc3n2C)cc1 [Example 1009]
IC50 (FGFR2): 1 to 100 µM
IC50 (SNU-16; SNU-16 cells): 0.25 to 1 µM

C#Cc1cc(OC)c(-c2c(-c3ccc(Oc4nccc(C)n4)c(F)c3)c3c(C)ncnc3n2C)c(C)n1 (atropisomer, axis not shown) [Example 1459]
IC50 (FGFR2): < 0.1 µM
IC50 (SNU-16; SNU-16 cells): ≤ 0.1 µM

C#Cc1cc(C)c(-c2c(-c3ccc(Oc4nccc(C)n4)c(F)c3)c3c(Cl)ncnc3n2C)c(F)n1 [Example 1401]
IC50 (FGFR2): < 0.1 µM
IC50 (SNU-16; [1]): ≤ 0.1 µM

C=C(C)C(=O)Nc1ccc(-c2c(-c3ccc(-c4cccnc4)s3)c3c(N)ncnc3n2C)cc1 [Example 1271]
IC50 (FGFR2): 1 to 100 µM
IC50 (SNU-16; [1]): 1 to 100 µM

C=C(C)C(=O)Nc1cc(C)c(-c2c(-c3ccc(Oc4nccc(C)n4)cc3)c3c(N)ncnc3n2C)cc1F [Example 1066]
IC50 (FGFR2): < 0.1 µM
IC50 (SNU-16; [1]): ≤ 0.1 µM

C#Cc1cc(C)c(-c2c(C3=CC[C@]4(CC3)Cc3ccc(C)nc3O4)c3c(C)ncnc3n2C)cn1 [Example 1396]
IC50 (FGFR2): 0.25 to 1 µM
IC50 (SNU-16; [1]): 1 to 100 µM

C=C(C)C(=O)N1CC=C(c2c(-c3ccc(Oc4cccc(C)n4)cc3)c3c(N)ncnc3n2C)[C@@H]1C (single isomer, unassigned) [Example 931]
IC50 (FGFR2): 0.25 to 1 µM
IC50 (SNU-16; [1]): 1 to 100 µM

C=CC(=O)N1CC(c2c(-c3ccc(C(=O)c4nccc(C)n4)cc3F)c3c(N)ncnc3n2C)C[C@@H]1C (some centres unmarked) [Example 886]
IC50 (FGFR2): 0.25 to 1 µM
IC50 (SNU-16; SNU-16 cells): ≤ 0.1 µM

C=CC(=O)N1CCC(c2c(-c3cnn(-c4ccccc4C)c3)c3c(N)ncnc3n2C)C1 (centres unmarked) [Example 817]
IC50 (FGFR2): 0.1 to 0.25 µM
IC50 (SNU-16; [1]): 0.1 to 0.25 µM

C=C(C)C(=O)Nc1ccc(-c2c(C3=CC[C@H](S(=O)(=O)N4CCCC4)CC3)c3c(N)ncnc3n2C)c(C)c1 [Example 1116]
IC50 (FGFR2): 0.1 to 0.25 µM
IC50 (SNU-16; [1]): ≤ 0.1 µM

C#Cc1cc(C)c(-c2c(-c3ccc(OC(C)C)cc3)c3c(N)ncnc3n2C)cn1 [Example 1160]
IC50 (FGFR2): < 0.1 µM
IC50 (SNU-16; [1]): ≤ 0.1 µM

C=Cc1ccc(-c2c(-c3ccccc3)c3c(N)ncnc3n2C)cn1 [Example 1194]
IC50 (FGFR2): 1 to 100 µM
IC50 (SNU-16; [1]): 1 to 100 µM

C=C(C)C(=O)Nc1ccc(-c2c(C3=CC[C@H](C(=O)N4CCc5ccccc54)CC3)c3c(N)ncnc3n2C)cc1 (single isomer, unassigned) [Example 986]
IC50 (FGFR2): 0.25 to 1 µM
IC50 (SNU-16; [1]): 0.25 to 1 µM

COCC#Cc1ccc2cc(-c3c(-c4ccc(Oc5nccc(C)n5)c(F)c4)c4c(N)ncnc4n3C)ccc2n1 [Example 1427]
IC50 (FGFR2): < 0.1 µM
IC50 (SNU-16; [1]): ≤ 0.1 µM

C=C1C(=O)N(c2ccc(-c3c(-c4ccc(Oc5nccc(C)n5)cc4)c4c(N)ncnc4n3C)cc2)CC1(C)C [Example 1088]
IC50 (FGFR2): 1 to 100 µM
IC50 (SNU-16; [1]): 0.25 to 1 µM

C=C(C)C(=O)Nc1ccc(-c2cn3ncnc(N)c3c2-c2ccc(C(=O)N3CCCCC3)cc2)cc1 [Example 821]
IC50 (FGFR2): 1 to 100 µM
IC50 (SNU-16; [1]): 1 to 100 µM

C=C(C)C(=O)Nc1ccc(-c2c(C3=CC[C@@H](C(=O)N4CCc5ccccc54)CC3)c3c(N)ncnc3n2C)cc1 (single isomer, unassigned) [Example 985]
IC50 (FGFR2): 0.25 to 1 µM
IC50 (SNU-16; [1]): 0.25 to 1 µM

C=CC(=O)N1CCC(c2cn3ncnc(N)c3c2-c2ccc(Oc3cccc(C)n3)cc2)C1 (centres unmarked) [Example 828]
IC50 (FGFR2): 1 to 100 µM
IC50 (SNU-16; [1]): 0.25 to 1 µM

C=CC(=O)NC1CC=C(c2c(-c3ccc(Oc4nccc(C)n4)c(F)c3)c3c(N)ncnc3n2C)CC1 (centres unmarked) [Example 1370]
IC50 (FGFR2): 0.1 to 0.25 µM
IC50 (SNU-16; [1]): 0.1 to 0.25 µM

C=CC(=O)N1CCC(c2c(-c3ccc(N4CCNC4=O)cc3)c3c(N)ncnc3n2C)C1 (centres unmarked) [Example 803]
IC50 (FGFR2): 1 to 100 µM
IC50 (SNU-16; [1]): 1 to 100 µM

C=C(C)C(=O)N1CC(c2c(-c3ccc(C(=O)N4CCCC4)cc3)c3c(N)ncnc3n2C)=C[C@@H]1C [Example 903]
IC50 (FGFR2): 1 to 100 µM
IC50 (SNU-16; [1]): 1 to 100 µM

C=C(C)C(=O)Nc1ccc(-c2c(-c3ccc(-c4cccc(O)c4)c(C#N)c3)c3c(N)ncnc3n2C)cc1 [Example 1389]
IC50 (FGFR2): 1 to 100 µM
IC50 (SNU-16; [1]): 0.25 to 1 µM

C=C(C)C(=O)Nc1ccc(-c2c(-c3ccc4nc[nH]c4c3)c3c(N)ncnc3n2C)cc1 [Example 1294]
IC50 (FGFR2): 0.25 to 1 µM
IC50 (SNU-16; [1]): 1 to 100 µM

C#Cc1ccc(-c2c(C3=CC[C@@H](C(=O)N4CCCC4)CC3)c3cncnc3n2C)c(C)n1 (single isomer, unassigned) [Example 1208]
IC50 (FGFR2): 1 to 100 µM
IC50 (SNU-16; [1]): 0.25 to 1 µM

C=C(C)C(=O)Nc1ccc(-c2c(-c3ccc(-c4cccc(O)c4)nc3)c3c(N)ncnc3n2C)cc1 [Example 1372]
IC50 (FGFR2): 1 to 100 µM
IC50 (SNU-16; [1]): 1 to 100 µM

C#Cc1cc(C)c(-c2[nH]c3ncnc(N)c3c2-c2ccc(Oc3nccc(C)n3)cc2)cn1 [Example 1130]
IC50 (FGFR2): 0.25 to 1 µM
IC50 (SNU-16; [1]): 0.25 to 1 µM

C#Cc1cc(OC)c(-c2c(C3=CC[C@H](C(=O)N4CCC[C@H]4C#N)CC3)c3c(C)ncnc3n2C)cn1 [Example 1468]
IC50 (FGFR2): < 0.1 µM
IC50 (SNU-16; [1]): ≤ 0.1 µM

C#Cc1cc(C)c(-c2c(C3=CC[C@]4(CC3)Cc3ccc(C)nc3O4)c3c(N)ncnc3n2C)cn1 [Example 1399]
IC50 (FGFR2): < 0.1 µM
IC50 (SNU-16; [1]): 0.1 to 0.25 µM

C=C(C)C(=O)Nc1ccc(-c2c(N3CC[C@H](C(=O)N4CCCC4)CC3=O)c3c(N)ncnc3n2C)cc1 (single isomer, unassigned) [Example 926]
IC50 (FGFR2): 1 to 100 µM
IC50 (SNU-16; [1]): 1 to 100 µM

C=C(C)C(=O)Nc1ccc(-c2c(C3=CC[C@@H](C(=O)N4CC5CC4C5)CC3)c3c(N)ncnc3n2C)cc1 [Example 996]
IC50 (FGFR2): 0.25 to 1 µM
IC50 (SNU-16; [1]): 0.1 to 0.25 µM

C=C(C)C(=O)Nc1ccc(-c2c(C3=CC[C@H](C(=O)N4CCCC4)CC3)c3c(N)ncnc3n2C)c(F)c1 [Example 1001]
IC50 (FGFR2): < 0.1 µM
IC50 (SNU-16; [1]): ≤ 0.1 µM

C=C(C)C(=O)Nc1ccc(-c2c(C3=CC[C@H](C(=O)NC4CCCC4)CC3)c3c(N)ncnc3n2C)cc1 (single isomer, unassigned) [Example 957]
IC50 (FGFR2): 0.1 to 0.25 µM
IC50 (SNU-16; [1]): ≤ 0.1 µM

C#Cc1cc(OCCO)c(-c2[nH]c3ncnc(N)c3c2-c2ccc(Oc3nccc(C)n3)c(F)c2)cn1 [Example 1447]
IC50 (FGFR2): < 0.1 µM
IC50 (SNU-16; [1]): ≤ 0.1 µM

C=CC(=O)Nc1ccc(-c2c(C3=CC[C@H](C(=O)N4CCCC4)CC3)c3c(N)ncnc3n2C)cc1 (single isomer, unassigned) [Example 963]
IC50 (FGFR2): < 0.1 µM
IC50 (SNU-16; [1]): ≤ 0.1 µM

C=C(C)C(=O)Nc1ccc(-c2c(-c3ccc(C(=O)N[C@H]4C[C@@H](F)C4)c(OC4CC4)c3)c3c(N)ncnc3n2C)cc1 [Example 976]
IC50 (FGFR2): 1 to 100 µM
IC50 (SNU-16; [1]): 1 to 100 µM
